# Tested on: S. albus J1074 and the Δpfk-derivative strain
# Experiment: Diamide sensitivity disc assay
# Type: cell-based, Streptomyces albus J1074
# Details: 100 mM diamide disc; ΔpfkSA mutant relative to wild type S. albus J1074; R5A plates, 30° C., 24 h
# Experimental: Lawns of S. albus J1074 wild-type and Δpfk mutant were generated by overlaying R5A plates (sucrose 100 g/l, K2SO4 0.25 g/l, MgCl2 10.12 g/l, glucose 10 g/l, Casamino acids 0.1 g/l, yeast extract 5 g/l, MOPS 21 g/l, NAOH 2 g/l, R2YE trace elements 2 ml/l, 15 g/L agar) with 3 ml soft Nutrient Agar containing 10^7 fresh spores. Immediately after plating, paper discs soaked in 100 mM diamide were added and plates were incubated at 30° C. for 24 h.
structure (smiles),measurement,value
CN(C)C(=O)/N=N/C(=O)N(C)C [diamide],sensitivity to diamide (halo around disc),less sensitive

# — patent publication US20210163964A1, “ENGINEERED STREPTOMYCES ALBUS STRAINS” (University of Florida Research Foundation, Incorporated, priority 2018, published 2021)
